# Measurements: patent US20050064507A1, “Determining kinase specificity” (priority 2003, published 2005)
# Square brackets hold non-standard residues; d marks the D form. Ends that are not written are not given here. pS = N[C@@H](COP(=O)(O)O)C(=O)O
# What was measured:
# PKC-theta = biological target: T1, PKC-theta (Homo sapiens, UniProt Q04759); assay: In vitro kinase assay: peptide phosphorylation by PKC-theta; format: biochemical; conditions: for Measured in vitro phosphorylation by PKC-theta: normalized to best substrate
# T1 construct: His-tag; made in house; host or cells: baculovirus-infected Sf9 cells
# From the text: A second strategy for validation of the PSSM derived from the methods described herein is to identify sequences represented in the human proteome that have low percentiles derived from the PSSM, to synthesize peptides that have those sequences, and test the efficiency of phosphorylation of those peptides by the kinase of interest. […] The results are shown for individual peptides (FIG. 11, panel A) or for groups of peptides aggregated by percentile prediction (FIG. 11, panel B). As with the testing described above with prospectively chosen peptides, the percentile scores are highly predictive of phosphorylation by the relevant kinase.
# An example of the purification procedure used for production of active kinase is as follows. A preparation of PKC-theta was prepared using a Gateway expression construct containing PKC-theta that was expressed in baculovirus, which were used to infect Sf9 cells. The cell pellet from a liter of baculovirus-infected Sf9 cells was resuspended in 20 volumes (60 ml) of extraction buffer (20 mM Na phosphate buffer pH 7.5, 500 mM NaCl, 5 mM pyrophosphate, 10% glycerol, 10 mM imidazole, 1 mM PMSF), sonicated twice for one minute (1 cm tip at 60% power and 50% duty cycle) and cell disruption was verified microscopically. The sample was adjusted to five mM MgCl2 and treated with one U benzonase/ml for an additional 20 minute on ice. The sample was clarified by centrifugation in a JA-20 rotor at 15K for 30 min at 4° C., filtered through a […] filter and applied at 0.5 ml/min to a one ml chelating sepharose column previously charged with nickel and equilibrated with extraction buffer. The column was washed with extraction buffer at one ml/min to baseline and eluted in a 20 ml gradient (20-500 mM imidazole in extraction buffer) into one ml fractions that were analyzed by SDS-PAGE. Fractions with the highest concentration of protein were pooled, were dialyzed twice against one liter of 20 mM Na PO4 pH 7.5, 50 mM NaCl buffer. The kinase pool was dialyzed twice against 20 mM HEPES pH 7.4, 100 mM NaCl, 2 mM EDTA, 5 mM DTT, 0.05% Triton-X-100. After dialysis, the sample was adjusted to 50% glycerol and quick-frozen in a dry ice/ethanol bath.
# (§1) The conditions of the kinase assay and the amount of active kinase used varied with the kinase and with the accuracy needed. For a typical experiment, 5-20 ng of kinase was used per well and each peptide pool was assayed in duplicate wells. Note that the absolute amount of kinase used was not usually a critical parameter, because the desired information related to specificity of the kinase not its absolute activity, and robustness of the assay depends on comparisons of the same amount of kinase on different peptides. The combination of kinase concentration and assay duration was modified to assure that the stoichiometry of peptide phosphorylation never exceeded 5%. The choice of kinase buffer depended on the kinase being analyzed. For studies of PKC, 100 mM HEPES, 0.05% Triton-X100, 1 mM CaCl2, 20 mM MgCl2, 0.2 mg/ml phosphatidyl serine (Avanti Polar Lipids), PMA 100 ng/ml was typically used. The lipid stock was prepared by transferring 3 mg phosphatidyl serine into iced mixture of 450 μl water plus 50 μl of 10% Triton-X100, sonicating 10 times on ice for 1 sec each.
# The kinase reaction mixture was assembled by sequential addition to a tube held on ice of: 5 μl peptide (100 μM for final concentration of 10 μM), 15 μl of kinase (typically 5 ng/well, in appropriate kinase buffer), 30 μl of ATP (1 uCi/well of ^32P-gamma ATP in a stock of 167 μM cold ATP in the kinase buffer; for final concentration for 100 μM ATP). The mixture was rapidly warmed to desired reaction temperature (30° C. for PKC) and incubated for the desired duration (usually 10 minutes). The kinase assay was terminated by transfer to 4° C. water batch, and rapid addition of an equal volume (50 μl) of stop solution [0.1M ATP+0.1M EDTA in water, pH 8]. […]
# PKC-delta = biological target: T2, PKC-delta (Homo sapiens, UniProt Q05655); assay: In vitro kinase assay: peptide phosphorylation by PKC-delta; format: biochemical; conditions: peptide concentration of 10 nM; percentage of phosphorylation of the best validating peptide substrate
# T2 construct: purchased Calbiochem
# From the text: One approach to validating a substrate identification method can involve, for example, comparison of substrate sites predicted by the method with in vitro phosphorylation results obtained using the selected kinase and peptides of known sequences. Such a systematic validation has been performed for the methods described herein. For example, a panel of seventy five peptides was synthesized, the phosphorylation observed for each peptide was experimentally measured, the amount of phosphorylation was quantified, the phosphorylation results for each peptide were normalized to the phosphorylation observed with the best substrate tested and these amounts were compared with predictions made according to the invention and according to the procedures provided by others. These peptides are referred to herein as proteomic peptides because their sequences are chosen from proteins in the human proteome; unlike the test sets employed herein, these peptides include no degenerate positions
# Table 2 compares the present predictions with actual measurements of phosphorylation on validating peptides. The method of synthesis of the validating peptides was as described elsewhere in the application, and each included an N-terminal linker sequence of biotinylated-Lys-dansylated-Lys-Pro-Pro-Gly (SEQ ID NO:231). The length of the remaining “core” of the validating peptides ranged from 12-21 residues with one to five S/T residues. In vitro phosphorylation of these validating peptides was measured in the manner described herein. […] In vitro phosphorylation results for the validating peptides were expressed as normalized values, namely as a percentage of phosphorylation of the best validating peptide substrate in the group.
# as §1
# The kinase reaction mixture was assembled by sequential addition to a tube held on ice of: 5 μl peptide (100 μM for final concentration of 10 μM), 15 μl of kinase (typically 5 ng/well, in appropriate kinase buffer), 30 μl of ATP (1 uCi/well of ^32P-gamma ATP in a stock of 167 μM cold ATP in the kinase buffer; for final concentration for 100 μM ATP). The mixture was rapidly warmed to desired reaction temperature (30° C. for PKC) and incubated for the desired duration (usually 10 minutes). The kinase assay was terminated by transfer to 4° C. water batch, and rapid addition of an equal volume (50 μl) of stop solution [0.1M ATP+0.1M EDTA in water, pH 8].
# The peptides were then captured from the reaction mixture by transfer to a Reacti-Bind Streptavidin High Binding Capacity Coated Plates (HBC) (Pierce Biotechnology) as follows. The HBC plates were pre-rinsed three times with PBS/Tween PBS/Tween20 0.05% (PBS/Tween). […]
# pPKC Ab = pPKC Ab binding to peptides phosphorylated in vitro by PKC-theta; conditions: for pPKC Ab binding to peptide: before/after phosphorylation by PKC-theta
# Protocol: Synthetic peptides chosen from those shown in Table 4 were subjected to phosphorylation by PKC-theta, Assay conditions were similar to those described herein, except that the phosphorylation reaction was for 30 minutes at 30° C. and then overnight at 4° C. The reaction mixture was applied to HB avidin-coated plates, the plates washed, and then pPKC Ab binding assayed.
# pPKC antibody [1] = conditions: cited from earlier work
# pPKC antibody [2] = assay: ELISA binding of pPKC antibody to synthesized SHP-1 phosphopeptides; conditions: for Binding of pPKC antibody: ELISA on phosphopeptide, normalized to the value for the Ser-591 peptide; for binding of pPKC antibody to phosphorylated peptide: ELISA
# Protocol: Tests were conducted to test whether SHP-1 is phosphorylated in vivo at Ser-591, Ser-26 or Ser-300. To do so, a strategy was employed that used a commercially available antibody from Cell Signaling Technology that is referred to as a phospho-PKC motif antibody (designated herein as pPKC Ab). (See U.S. Pat. No. 6,441,140 and Cell Signaling Technology Datasheet for ‘Phospho-(Ser) PKC Substrate Antibody’). […] Such antibodies can be used for detection of unknown proteins that contain phosphorylation sites conforming to the motif to which they bind. For example, phosphorylated proteins can be detected on two-dimensional gels with the pPKC Ab and the identity of these phosphorylated proteins can be confirmed by the observed molecular weight, isoelectric point and other information such as the predictive algorithms provided herein. Similarly, such detected proteins can be enriched by classical biochemical separations, and when sufficiently enriched, can be identified by mass spectrometry (Astoul E et al. 2003. J Biol Chem 278:9267-9275).
# Because these studies of SHP-1 were an early precedent-setting study, a rigorous approach was adopted in determining whether pPKC antibody binding included one or more of the three predicted SHP-1 sites. Phosphorylated peptides corresponding to the three best predicted PKC sites were synthesized (Table 7) in microtiter wells using a method of prior art described in U.S. Pat. No. 6,031,074. In addition, phosphorylated peptides corresponding to others sites in SHP-1 that match part of the motif detected by the pPKC antibody were also synthesized. Those phosphorylated peptides were then analyzed for reactivity with the pPKC antibody in an ELISA assay.
# Among the phosphorylated peptides corresponding to sites in SHP-1, the best binding of pPKC antibody was detected with the phosphorylated peptide corresponding to Ser-591 (Table 7; […]).
# T1 sequence (Q04759 whole entry): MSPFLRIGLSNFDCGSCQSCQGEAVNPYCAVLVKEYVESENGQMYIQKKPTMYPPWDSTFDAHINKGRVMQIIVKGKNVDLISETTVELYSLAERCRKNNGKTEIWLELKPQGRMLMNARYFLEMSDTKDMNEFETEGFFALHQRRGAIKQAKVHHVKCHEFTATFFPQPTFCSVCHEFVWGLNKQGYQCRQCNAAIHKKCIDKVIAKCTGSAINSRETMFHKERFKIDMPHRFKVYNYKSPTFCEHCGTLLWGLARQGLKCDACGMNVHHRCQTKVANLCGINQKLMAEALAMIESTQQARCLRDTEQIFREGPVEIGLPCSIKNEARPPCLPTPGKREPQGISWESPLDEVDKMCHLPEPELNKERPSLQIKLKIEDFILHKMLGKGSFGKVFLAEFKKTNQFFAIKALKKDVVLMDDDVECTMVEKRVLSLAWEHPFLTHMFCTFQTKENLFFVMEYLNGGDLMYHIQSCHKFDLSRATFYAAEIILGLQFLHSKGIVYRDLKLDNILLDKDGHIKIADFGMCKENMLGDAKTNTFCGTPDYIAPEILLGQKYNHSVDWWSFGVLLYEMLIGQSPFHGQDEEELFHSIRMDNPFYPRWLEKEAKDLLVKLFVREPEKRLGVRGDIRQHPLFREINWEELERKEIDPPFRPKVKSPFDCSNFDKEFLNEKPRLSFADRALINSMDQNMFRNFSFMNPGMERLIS
# T2 sequence (Q05655 whole entry): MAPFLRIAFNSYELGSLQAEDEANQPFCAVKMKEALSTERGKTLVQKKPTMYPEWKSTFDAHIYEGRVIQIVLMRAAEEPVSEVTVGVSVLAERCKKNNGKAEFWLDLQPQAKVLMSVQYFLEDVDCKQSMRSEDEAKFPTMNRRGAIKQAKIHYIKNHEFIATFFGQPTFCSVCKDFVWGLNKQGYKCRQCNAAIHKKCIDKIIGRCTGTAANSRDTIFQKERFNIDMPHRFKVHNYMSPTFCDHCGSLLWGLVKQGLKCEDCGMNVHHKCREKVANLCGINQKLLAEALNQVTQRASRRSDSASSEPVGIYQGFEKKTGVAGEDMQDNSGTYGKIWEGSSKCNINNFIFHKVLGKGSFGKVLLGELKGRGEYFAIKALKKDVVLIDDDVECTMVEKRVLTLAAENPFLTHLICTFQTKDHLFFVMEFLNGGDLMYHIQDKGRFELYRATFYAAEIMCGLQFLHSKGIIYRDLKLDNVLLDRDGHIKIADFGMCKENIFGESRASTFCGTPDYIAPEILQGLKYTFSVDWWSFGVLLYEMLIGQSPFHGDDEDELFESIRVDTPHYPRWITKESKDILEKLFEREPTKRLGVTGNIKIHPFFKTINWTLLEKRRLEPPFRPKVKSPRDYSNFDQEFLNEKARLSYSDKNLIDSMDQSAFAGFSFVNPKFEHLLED
substance,measurement,setting,value
75 (EEAEHKATKARLADK) [compound 75],Peptide phosphorylation by PKC-theta,PKC-theta; Table 8,0
same,Measured in vitro phosphorylation by PKC-delta,PKC-delta,0%
same,pPKC Ab Signal on peptide without exposure to PKC-theta,pPKC Ab,0.02
same,pPKC Ab Signal on peptide after exposure to PKC-theta phosphorylation,pPKC Ab; 30 minutes at 30° C. then overnight at 4° C.,0.02
same,pPKC Ab Signal amount dependent on PKC phosphorylation,pPKC Ab; difference after minus without exposure,0.00
212 (VSRGSSLKILSK) [compound 212],Measured in vitro phosphorylation by PKC-theta,PKC-theta,13%
213 (RHSRSRSRHRLS) [compound 213],Measured in vitro phosphorylation by PKC-theta,PKC-theta,13%
214 (SRRRSPSYSRHS) [compound 214],Measured in vitro phosphorylation by PKC-theta,PKC-theta,13%
215 (TKKRSKSRSKER) [compound 215],Measured in vitro phosphorylation by PKC-theta,PKC-theta,12%
216 (SCRTSSRKRAGK) [compound 216],Measured in vitro phosphorylation by PKC-theta,PKC-theta,11%
229 (WKN[pS]IRH) [compound 229],binding of pPKC antibody (manufacturer Cell Signaling Technology),pPKC antibody [1],binds
230 (RRP[pS]YRK) [compound 230],binding of pPKC antibody (manufacturer Cell Signaling Technology),pPKC antibody [1],binds
289 (MKNAHAKA[pS]RTSSKHKE) [compound 289],Binding of pPKC antibody,pPKC antibody [2],18
290 (RVILQGRD[pS]NIPGSDYI) [compound 290],Binding of pPKC antibody,pPKC antibody [2],13
291 (AHAKASRT[pS]SKHKEDVY) [compound 291],Binding of pPKC antibody,pPKC antibody [2],12
292 (KKKLEVLQ[pS]QKGQESEY) [compound 292],Binding of pPKC antibody,pPKC antibody [2],11
293 (PSEPGGVL[pS]FLDQINQR) [compound 293],Binding of pPKC antibody,pPKC antibody [2],9
294 (HAKASRTS[pS]KHKEDVYE) [compound 294],Binding of pPKC antibody,pPKC antibody [2],7
295 (PWTFLVRE[pS]LSQPGDFV) [compound 295],Binding of pPKC antibody,pPKC antibody [2],5
296 (KNQGDFSL[pS]VRVGDQVT) [compound 296],Binding of pPKC antibody,pPKC antibody [2],3
297 (PLNCSDPT[pS]ERWYHGHM) [compound 297],Binding of pPKC antibody,pPKC antibody [2],0
298 (ADKEKSKG[pS]LKRK) [compound 298],Binding of pPKC antibody,pPKC antibody [2],100
299 (LKGRGVHG[pS]FLARPSRK) [compound 299],Binding of pPKC antibody,pPKC antibody [2],54
300 (HGSFLARP[pS]RKNQGDFS) [compound 300],Binding of pPKC antibody,pPKC antibody [2],39
ADKEKSKG-pS-LKRK---- (ADKEKSKG[pS]LKRK) [SEQ ID NO 298],binding of pPKC antibody to phosphorylated peptide,pPKC antibody [2],best binding
HGSFLARP-pS-RKNQGDFS (HGSFLARP[pS]RKNQGDFS) [SEQ ID NO 300],binding of pPKC antibody to phosphorylated peptide,pPKC antibody [2],distinctly lower but readily detectable binding
HVRRRRGTFKRSKLRARD [SEQ ID NO 1],pPKC Ab binding to peptide,pPKC Ab,after phosphorylation but not before
LKGRGVHG-pS-FLARPSRK (LKGRGVHG[pS]FLARPSRK) [SEQ ID NO 299],binding of pPKC antibody to phosphorylated peptide,pPKC antibody [2],distinctly lower but readily detectable binding
LRRRSLRRSNSISKSPGP [SEQ ID NO 121],pPKC Ab binding to peptide,pPKC Ab,after phosphorylation but not before
